# Experimental data from PubChem BioAssay (NCI).
#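 Growth conditions: 96-well plates. Treatment: test compound, 48 hours, 5 concentrations. Analysis: linear interpolation between bracketing concentrations; unreached endpoints set to highest concentration. GI50 is the concentration that inhibits growth by half. TGI marks complete inhibition of growth.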
# What was measured:
# Test in all cases: inhibition of tumour cell growth, NCI panel, 48 h
# MOLT-4 leukemia = tested on: MOLT-4 leukemia
# NCI-H226 lung = tested on: NCI-H226 lung
# NCI-H23 lung = tested on: NCI-H23 lung
# NCI-H460 lung = tested on: NCI-H460 lung
# NCI-H522 lung = tested on: NCI-H522 lung
# NCI/ADR-RES ovarian = tested on: NCI/ADR-RES ovarian
# OVCAR-3 ovarian = tested on: OVCAR-3 ovarian
# OVCAR-4 ovarian = tested on: OVCAR-4 ovarian
# OVCAR-5 ovarian = tested on: OVCAR-5 ovarian
# OVCAR-8 ovarian = tested on: OVCAR-8 ovarian
# PC-3 prostate = tested on: PC-3 prostate
# RPMI-8226 leukemia = tested on: RPMI-8226 leukemia
# RXF 393 renal = tested on: RXF 393 renal
# SF-268 CNS = tested on: SF-268 CNS
# SF-295 CNS = tested on: SF-295 CNS
# SF-539 CNS = tested on: SF-539 CNS
# SK-MEL-2 melanoma = tested on: SK-MEL-2 melanoma
# SK-MEL-28 melanoma = tested on: SK-MEL-28 melanoma
# SK-MEL-5 melanoma = tested on: SK-MEL-5 melanoma
# SK-OV-3 ovarian = tested on: SK-OV-3 ovarian
# SN12C renal = tested on: SN12C renal
# SNB-19 CNS = tested on: SNB-19 CNS
# SNB-75 CNS = tested on: SNB-75 CNS
# SR leukemia = tested on: SR leukemia
# SW-620 colon = tested on: SW-620 colon
# T-47D breast = tested on: T-47D breast
# TK-10 renal = tested on: TK-10 renal
# U251 CNS = tested on: U251 CNS
# UACC-62 melanoma = tested on: UACC-62 melanoma
# UO-31 renal = tested on: UO-31 renal
compound,measurement,setting,value
Cc1c([C@H](C(Cl)Cl)[C@H](O)[C@H]2C[C@H](C)C(=O)O2)ccc2c1C(=O)[C@H]1[C@H]2C[C@@H](Br)[C@@]23O[C@@H](CO[C@H]2O)CC13C (stereo partly specified),TGI,MOLT-4 leukemia,> 50000 nM
same,GI50,NCI-H226 lung,> 12700 nM
same,TGI,NCI-H226 lung,> 50000 nM
same,GI50,NCI-H23 lung,295 nM
same,TGI,NCI-H23 lung,> 15300 nM
same,GI50,NCI-H460 lung,187 nM
same,TGI,NCI-H460 lung,> 50000 nM
same,GI50,NCI-H522 lung,183 nM
same,TGI,NCI-H522 lung,1690 nM
same,GI50,NCI/ADR-RES ovarian,2170 nM
same,TGI,NCI/ADR-RES ovarian,11000 nM
same,GI50,OVCAR-3 ovarian,181 nM
same,GI50,OVCAR-4 ovarian,1370 nM
same,TGI,OVCAR-4 ovarian,> 50000 nM
same,GI50,OVCAR-5 ovarian,314 nM
same,TGI,OVCAR-5 ovarian,> 50000 nM
same,GI50,OVCAR-8 ovarian,449 nM
same,TGI,OVCAR-8 ovarian,> 50000 nM
same,GI50,PC-3 prostate,330 nM
same,TGI,PC-3 prostate,> 50000 nM
same,GI50,RPMI-8226 leukemia,240 nM
same,TGI,RPMI-8226 leukemia,> 50000 nM
same,GI50,RXF 393 renal,467 nM
same,GI50,SF-268 CNS,586 nM
same,TGI,SF-268 CNS,> 50000 nM
same,GI50,SF-295 CNS,220 nM
same,TGI,SF-295 CNS,2530 nM
same,GI50,SF-539 CNS,304 nM
same,TGI,SF-539 CNS,2790 nM
same,GI50,SK-MEL-2 melanoma,403 nM
same,TGI,SK-MEL-2 melanoma,> 22200 nM
same,TGI,SK-MEL-28 melanoma,> 50000 nM
same,GI50,SK-MEL-5 melanoma,186 nM
same,TGI,SK-MEL-5 melanoma,3970 nM
same,GI50,SK-OV-3 ovarian,292 nM
same,TGI,SK-OV-3 ovarian,4070 nM
same,GI50,SN12C renal,881 nM
same,TGI,SN12C renal,> 50000 nM
same,GI50,SNB-19 CNS,380 nM
same,TGI,SNB-19 CNS,> 50000 nM
same,GI50,SNB-75 CNS,454 nM
same,TGI,SNB-75 CNS,> 50000 nM
same,GI50,SR leukemia,153 nM
same,TGI,SR leukemia,> 50000 nM
same,GI50,SW-620 colon,309 nM
same,TGI,SW-620 colon,> 50000 nM
same,GI50,T-47D breast,258 nM
same,TGI,T-47D breast,> 50000 nM
same,GI50,TK-10 renal,1680 nM
same,TGI,TK-10 renal,> 50000 nM
same,GI50,U251 CNS,262 nM
same,TGI,U251 CNS,> 50000 nM
same,GI50,UACC-62 melanoma,324 nM
same,TGI,UACC-62 melanoma,> 50000 nM
same,GI50,UO-31 renal,8890 nM
same,TGI,UO-31 renal,> 50000 nM
